Data from US20210207099A1, “METHODS AND COMPOSITIONS FOR GENERATING CELLS OF ENDODERMAL LINEAGE AND BETA CELLS AND USES THEREOF” (priority 2018, published 2021).

Test system: F-actin
Test: F-actin staining and G/F actin ratio by western blot
Type: cell-based, human
Settings: 1 μM for 24 hours, plated stage 4 cells
Procedure: Brightfield images were taken with a Leica DMi1 inverted light microscope, and fluorescence images were captured with a Nikon A1Rsi confocal microscope. For immunostaining, cells were fixed with 4% paraformaldehyde (PFA) at room temperature for 30 minutes. They were then blocked and permeabilized for 45 minutes at room temperature with an immunocytochemistry (ICC) solution consisting of 0.1% triton X (Acros Organics, 327371000) and 5% donkey serum (Jackson Immunoresearch, 017000-121) in PBS (Corning, 21-040-CV). Samples were then incubated with primary antibodies diluted in ICC solution overnight at 4° C., washed with ICC, incubated with secondary antibodies diluted in ICC for 2 hours at room temperature, and stained with DAPI for 15 minutes at room temperature. For histological sectioning, whole SC-β cell clusters generated with the planar protocol and mouse kidneys containing transplanted cells were fixed overnight with 4% PFA at 4° C. The in vitro clusters were also embedded in Histogel (Thermo Scientific, hg-4000-012). These samples were then paraffin-embedded and sectioned by the Division of Comparative Medicine (DCM) Research Animal Diagnostic Laboratory Core at Washington University in St. Louis. Paraffin was removed from sectioned samples with Histoclear (Thermo Scientific, C78-2-G), and antigen retrieval was carried out in a pressure cooker (Proteogenix, 2100 Retriever) with 0.05 M EDTA (Ambion, AM9261). Slides were blocked and permeabilized with ICC solution for 45 minutes, incubated with primary antibodies in ICC solution overnight at 4° C., and incubated with secondary antibodies for 2 hours at room temperature. Slides were then sealed with DAPI Fluoromount-G (SouthernBiotech, 0100-20).
G/F actin ratio was determined by western blot following the instructions of the G-actin/F-actin In Vivo Assay Kit (Cytoskeleton, Inc, BK037). Western blot was visualized using SuperSignal West Pico PLUS Chemiluminescent substrate (ThermoScientific, 34577) and the Odyssey FC (LI-COR) imager.

Question: With `C/C1=C/C(=O)O[C@@H]2C[C@@H](CC[C@H](C)/C=C\C=C\CC1)O[C@@](O)([C@@H]1CSC(=O)N1)C2` [latrunculin A] as the compound, how does the F-actin polymerization state read?
Answer: almost complete depolymerization of F-actin

Question: And the G/F-actin ratio?
Answer: increased G/F-actin ratio

Question: What about the “PDX1 expression by immunostaining” value of the same compound?
Answer: maintenance of PDX1 expression
